Measured values published in PubChem BioAssay AID463136 (University of Pittsburgh Molecular Library Screening Center, 2010).
pIC50: −log10 of the molar value. Inconclusive results are not listed. Active and inactive are the calls of the source. The rule behind the calls is not given here.

Key:
[1] = test system: HCS imaging, dynein-mediated cargo transport inhibition; test: blockers of dynein-driven microtubule transport – imaging, high-content imaging, dose response (AID 463136);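 note: mouse mammary adenocarcinoma 3617.4 cells expressing GFP-tagged rat glucocorticoid receptor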; for inhibition: reference of the scale not given here
[2] = as above; conditions: HCS imaging, dynein-mediated cargo transport inhibition; inhibition at max concentration; at 50 µM; stronger effect = higher value

SMILES	pIC50 [1]	inhibition [2] [%]	IC50 [1]
CCOc1cc(/C=C\[N+](=O)[O-])ccc1OCC(=O)N1CCOCC1	4.43	76.4	–
O=C1C(Cl)=C(N2CCCCC2)C(=O)C(Cl)=C1c1cnc(N2CCCCC2)s1	4.48	94.6	–
Cc1nc([N+](=O)[O-])c(Br)n1CC(=O)c1ccc(F)cc1	5.49	92.2	–
CC[n+]1c(/C=C/C=C/N(C(C)=O)c2ccccc2)sc2cc(OC)ccc21	5.18	93.8	–
Cc1cccc2cc3c(N)c(C(=O)N4CCCc5ccccc54)sc3nc12	4.45	116	–
CC1(C)CC(=O)C2=C(C1)OC1=C(C(=O)CC(C)(C)C1)C2c1ccc(O)cc1O	4.65	65.8	–
COc1ccc(OC)c(N2C(=O)NC(=O)/C(=C/c3ccc([N+](=O)[O-])s3)C2=O)c1	4.90	86.6	–
CC(C(Sc1ccccc1N)c1ccccc1)[N+](=O)[O-] (stereo not drawn)	4.61	84.4	–
O=C(CCl)N(CCCNC(=O)C(F)(F)F)c1ccc([N+](=O)[O-])cc1	4.97	83.1	–
CC1CCc2cc(F)ccc2N1C(=O)CCl (stereo not drawn)	4.98	77.7	–
O=C1/C(=C/c2ccc(N3CCOCC3)o2)SC(=Nc2ccccc2)N1CCc1c[nH]c2ccccc12	5.92	95.6	–
N/C(=C\C(=O)c1cc(Cl)ccc1O)C(Cl)(Cl)Cl	4.48	76.1	–
O=C(CCl)N(c1ccc(Cl)cc1)c1c[nH]c2ccccc12	–	10.3	> 50 µM (inactive)
O=[N+]([O-])c1ccc(N/N=C/c2c[nH]c3ccccc23)cc1	4.66	118	–
C=CCN1C(=O)NC(=O)/C(=C/C=C/c2ccccc2)C1=O	–	-33.3	> 50 µM (inactive)
Cc1ccnc(N/C=C(\C#N)c2nc(-c3cccc(Br)c3)cs2)c1	5.06	102	–
O=C(/C=C/c1ccccc1Cl)c1cccnc1	4.76	85.3	–

SMILES	pIC50 [1]	inhibition [2] [%]	IC50 [1]
O=c1c(Cl)c(Cl)cnn1Cc1ccc(F)cc1	4.99	80.4	–
Cc1ccc(NC(=O)C(=Cc2ccc(C(=O)O)cc2)C(=O)Nc2ccc(C)cc2C)c(C)c1	4.95	78	–
Cc1ccc(SC(=O)c2c([N+](=O)[O-])c(C)nn2C)cc1	–	6.09	> 50 µM (inactive)
O=C(Nc1ccccc1)c1nnsc1S(=O)c1ccc(Cl)cc1 (stereo not drawn)	–	32.1	> 50 µM (inactive)
O=c1cc(N=Nc2ccc(Cl)cc2)[nH]c(=O)[nH]1	4.87	80.6	–
CN(Cc1ccc(Cl)s1)C(=O)CCl	5.06	75.8	–
CC(C)Cn1c([N+](=O)[O-])nc2c1c(=O)[nH]c(=O)n2C	5.28	83.8	–
Cc1ccc2nc(/C(C#N)=C\c3ccc(N4CCOCC4)o3)[nH]c2c1	4.88	80.2	–
Cn1c(=O)c(NCCc2ccccc2)c2c3c(cccc31)C(=O)c1ccccc1-2	–	19	> 50 µM (inactive)
N#C/C(=C/c1ccc(N2CCCCCC2)o1)c1ccc(Cl)cc1	–	23.1	> 50 µM (inactive)
CN(C)CC(C(=O)c1ccccc1)c1ccccc1 (stereo not drawn)	5.08	70.5	–
O=C(NC1CCCCC1)C(c1cccnc1)N(C(=O)CCl)c1ccc(F)cc1 (stereo not drawn)	4.89	82.2	–
N=c1oc2c3c4c(cc2cc1C(=O)Nc1ccccc1)CCCN4CCC3	–	99	> 50 µM (inactive)
COc1cc(/C=C/C(=O)c2ccc(F)cc2)cc(OC)c1OC	4.44	69.5	–
COc1ccc(N=C2S/C(=C\c3ccc(N4CCOCC4)o3)C(=O)N2CCc2c[nH]c3ccccc23)cc1	4.57	127	–
O=C(CCl)N1N=C(c2cccs2)CC1c1ccco1 (stereo not drawn)	–	47.6	> 50 µM (inactive)
COc1ccc(NC(=O)/C(Cl)=C(/Cl)S(=O)Cc2ccc(C)cc2)cn1 (stereo not drawn)	4.63	54.7	–
